# Experimental data taken from PMC12543283, “TastepepAI: An artificial intelligence platform for taste peptide de novo design” (PLOS Computational Biology, 2025).
# Ends that are not written are not given here.
# Legend:
# [1] = Electronic tongue analysis (Taste-Sensing System SA 402B); parameters: unit not given here; conditions: reference solution 30 mM KCl + 0.3 mM tartaric acid as baseline, first measurement excluded; for Umami: sensor AAE; for Umami / Bitter / Sweet: detection threshold 0, room temperature; for Umami / Bitter / Sour / Salty: four replicates; for Sour: detection threshold -13, room temperature; for Salty: detection threshold -6, room temperature; for Sweet: measured five times
# Outline: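 Samples were tested at 0.1 and 1.0 mg/mL on an SA 402B e-tongue fitted with sourness, saltiness, bitterness, sweetness and umami sensors, with 30 mM KCl/0.3 mM tartaric acid as reference and baseline. Thresholds were −13 for sour, −6 for salty and 0 for the rest. Runs at room temperature: four replicates, five for sweetness, first reading discarded.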
# [2] = test system: human bronchial epithelial cells (BEAS-2B)
# [3] = test system: human embryonic kidney cells (HEK293T)
# [4] = test system: human pancreatic ductal epithelial cells (HPNE)
# [5] = test system: human umbilical vein endothelial cells (HUVEC)
Substance,Umami ([1]; peptide 0.1 mg/mL),Umami ([1]; peptide 1 mg/mL),"Bitter ([1]; sensor C00, peptide 0.1 mg/mL)","Bitter ([1]; sensor C00, peptide 1 mg/mL)","Sour ([1]; sensor CA0, peptide 0.1 mg/mL)","Sour ([1]; sensor CA0, peptide 1 mg/mL)","Salty ([1]; sensor CT0, peptide 0.1 mg/mL)","Salty ([1]; sensor CT0, peptide 1 mg/mL)","Sweet ([1]; sensor GL1, peptide 0.1 mg/mL)","Sweet ([1]; sensor GL1, peptide 1 mg/mL)","Average cell viability, BEAS-2B [2]","Cell viability, BEAS-2B, Data1 [2]","Cell viability, BEAS-2B, Data2 [2]","Cell viability, BEAS-2B, Data3 [2]","Average cell viability, HEK293T [3]","Cell viability, HEK293T, Data1 [3]","Cell viability, HEK293T, Data2 [3]","Cell viability, HEK293T, Data3 [3]","Average cell viability, HPNE [4]","Cell viability, HPNE, Data1 [4]",also measured
TIDDELR [TaPep26],1.71,-4.35,7.26,3.16,-3.53,10.93,-21.44,8.38,5.51,-3.99,102.16,95.61,106.68,104.19,99.46,96.81,98.23,103.34,94.58,84.76,"Cell viability, HPNE, Data2 [4]: 94.94; Cell viability, HPNE, Data3 [4]: 104.03; Average cell viability, HUVEC [5]: 104.87; Cell viability, HUVEC, Data1 [5]: 103.54; Cell viability, HUVEC, Data2 [5]: 102.74; Cell viability, HUVEC, Data3 [5]: 108.33"
TPRKQ [TaPep37],1.93,-5.88,7.34,3.28,-4.03,12.49,-13.82,15.18,4.01,-5.26,100.23,95.41,110.47,94.82,100.47,100.50,96.44,104.48,94.98,108.02,"Cell viability, HPNE, Data2 [4]: 84.26; Cell viability, HPNE, Data3 [4]: 92.65; Average cell viability, HUVEC [5]: 107.80; Cell viability, HUVEC, Data1 [5]: 111.04; Cell viability, HUVEC, Data2 [5]: 111.52; Cell viability, HUVEC, Data3 [5]: 100.82"
TQEVVN [TaPep25],1.53,-3.13,7.01,3.50,-6.12,7.84,-23.02,5.51,8.12,-3.53,110.07,118.34,103.39,108.47,100.16,103.15,98.42,98.90,92.98,92.95,"Cell viability, HPNE, Data2 [4]: 81.96; Cell viability, HPNE, Data3 [4]: 104.03; Average cell viability, HUVEC [5]: 92.52; Cell viability, HUVEC, Data1 [5]: 90.21; Cell viability, HUVEC, Data2 [5]: 89.33; Cell viability, HUVEC, Data3 [5]: 98.03"
VAEDLL [TaPep8],2.66,-4.08,7.50,1.63,-5.63,8.25,-22.00,7.96,9.31,-4.65,103.39,114.76,90.53,104.89,101.07,102.68,95.30,105.24,106.12,109.62,"Cell viability, HPNE, Data2 [4]: 99.23; Cell viability, HPNE, Data3 [4]: 109.52; Average cell viability, HUVEC [5]: 103.81; Cell viability, HUVEC, Data1 [5]: 109.13; Cell viability, HUVEC, Data2 [5]: 93.96; Cell viability, HUVEC, Data3 [5]: 108.33"
VARLEA [TaPep9],2.67,-2.73,7.95,2.75,-6.31,8.17,-18.92,12.49,8.92,-4.48,112.30,110.77,115.45,110.67,105.62,103.06,112.15,101.64,104.39,117.30,"Cell viability, HPNE, Data2 [4]: 93.74; Cell viability, HPNE, Data3 [4]: 102.13; Average cell viability, HUVEC [5]: 96.43; Cell viability, HUVEC, Data1 [5]: 97.15; Cell viability, HUVEC, Data2 [5]: 102.50; Cell viability, HUVEC, Data3 [5]: 89.65"
